Assay results from patent US20040086901A1, “Database for analyzing gene function and method of analyzing gene function by dspa” (priority 2000, published 2004).
Non-standard residues stand in square brackets, D forms with d. Residues, ends and D or L forms follow the SMILES beside them. Nle = CCCC[C@H](N)C(=O)O

Tests used:
Format in all cases: cell-based, mouse
[1] = test system: NIH3T3 cells overexpressing PDGF-R-Del; assay: MTT cell viability, PDGF-R-Del overexpressing cells vs parental line; conditions: PDGF-R-Del high-expressing cells / parental cell line, 3 to 4 days
Summary of the method: (§1)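 Stable NIH3T3 transfectants (cDNA in pRc-CMV-type vector, G-418-selected, high expressers picked by Western blot) and parental cells were seeded at 1×10^5 cells/ml into twofold serial drug dilutions and grown 3–4 days. MTT formazan was read at 574/655 nm, and log ratios of IC40 values were derived.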

[2] = test system: NIH3T3 cells overexpressing calpastatin; assay: MTT cell viability, calpastatin overexpressing cells vs parental line; conditions: calpastatin high-expressing cells / parental cell line, 3 to 4 days
Summary of the method: as §1

[3] = test system: NIH3T3 cells overexpressing cAMP-PK-CS; assay: MTT cell viability, cAMP-PK-CS overexpressing cells vs parental line; conditions: cAMP-PK-CS high-expressing cells / parental cell line, 3 to 4 days
Summary of the method: (§2)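 MTT viability of transfected versus parental NIH3T3 after 3–4 days in twofold drug dilution series; values are log ratios of IC40.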

[4] = test system: NIH3T3 cells overexpressing Ki-ras; assay: MTT cell viability, Ki-ras overexpressing cells vs parental line; conditions: Ki-ras high-expressing cells / parental cell line, 3 to 4 days
Summary of the method: as §1

[5] = test system: NIH3T3 cells overexpressing N-ras; assay: MTT cell viability, N-ras overexpressing cells vs parental line; conditions: N-ras high-expressing cells / parental cell line, 3 to 4 days
Summary of the method: as §1

[6] = test system: NIH3T3 cells overexpressing HSP4O; assay: MTT cell viability, HSP4O overexpressing cells vs parental line; conditions: HSP4O high-expressing cells / parental cell line, 3 to 4 days
Summary of the method: as §1

[7] = test system: NIH3T3 cells overexpressing Gluco-corticoid-R; assay: MTT cell viability, Gluco-corticoid-R overexpressing cells vs parental line; conditions: Gluco-corticoid-R high-expressing cells / parental cell line, 3 to 4 days
Summary of the method: as §2

[8] = test system: NIH3T3 cells overexpressing ERK-DN; assay: MTT cell viability, ERK-DN overexpressing cells vs parental line; conditions: ERK-DN high-expressing cells / parental cell line, 3 to 4 days
Summary of the method: as §2

[9] = test system: NIH3T3 cells overexpressing STAT1; assay: MTT cell viability, STAT1 overexpressing cells vs parental line; conditions: STAT1 high-expressing cells / parental cell line, 3 to 4 days
Summary of the method: as §2

[10] = test system: NIH3T3 cells overexpressing CaMKIIa-Active; assay: MTT cell viability, CaMKIIa-Active overexpressing cells vs parental line; conditions: CaMKIIa-Active high-expressing cells / parental cell line, 3 to 4 days
Summary of the method: as §1

[11] = test system: NIH3T3 cells overexpressing PKCepsilon-KN; assay: MTT cell viability, PKCepsilon-KN overexpressing cells vs parental line; conditions: 3 to 4 days
Summary of the method: as §2

[12] = test system: NIH3T3 cells overexpressing CBP8; assay: MTT cell viability, CBP8 overexpressing cells vs parental line; conditions: CBP8 high-expressing cells / parental cell line, 3 to 4 days
Summary of the method: as §1

[13] = test system: NIH3T3 cells overexpressing Bax; assay: MTT cell viability, Bax overexpressing cells vs parental line; conditions: 3 to 4 days
Summary of the method: as §2

[14] = test system: NIH3T3 cells overexpressing HNF4; assay: MTT cell viability, HNF4 overexpressing cells vs parental line; conditions: HNF4 high-expressing cells / parental cell line, 3 to 4 days
Summary of the method: as §2

[15] = test system: NIH3T3 cells overexpressing m-calpain; assay: MTT cell viability, m-calpain overexpressing cells vs parental line; conditions: m-calpain high-expressing cells / parental cell line, 3 to 4 days
Summary of the method: as §2

[16] = test system: NIH3T3 cells overexpressing JNK-DN; assay: MTT cell viability, JNK-DN overexpressing cells vs parental line; conditions: JNK-DN high-expressing cells / parental cell line, 3 to 4 days
Summary of the method: as §1

[17] = test system: NIH3T3 cells overexpressing PDGF-R; assay: MTT cell viability, PDGF-R overexpressing cells vs parental line; conditions: PDGF-R high-expressing cells / parental cell line, 3 to 4 days
Summary of the method: as §1

[18] = test system: NIH3T3 cells overexpressing p16/INK4A; assay: MTT cell viability, p16/INK4A overexpressing cells vs parental line; conditions: p16/INK4A high-expressing cells / parental cell line, 3 to 4 days
Summary of the method: as §1

[19] = test system: NIH3T3 cells, TPA (PKC downreg); assay: MTT cell viability, TPA (PKC downreg) cells vs parental line; conditions: 3 to 4 days
[20] = PKCepsilon-KN (first of two lines) high-expressing cells / parental cell line
[21] = PKCepsilon-KN (second of two lines) high-expressing cells / parental cell line
[22] = Bax (first of two Bax lines) high-expressing cells / parental cell line
[23] = Bax (second of two Bax lines) high-expressing cells / parental cell line

Molecule	logarithmic value of ratio of IC40 values [1]	logarithmic value of ratio of IC40 values [2]	logarithmic value of ratio of IC40 values [3]	logarithmic value of ratio of IC40 values [4]	logarithmic value of ratio of IC40 values [5]	logarithmic value of ratio of IC40 values [6]	logarithmic value of ratio of IC40 values [7]	logarithmic value of ratio of IC40 values [8]	logarithmic value of ratio of IC40 values [9]	logarithmic value of ratio of IC40 values [10]	logarithmic value of ratio of IC40 values [11, 20]	logarithmic value of ratio of IC40 values [11, 21]	logarithmic value of ratio of IC40 values [12]	logarithmic value of ratio of IC40 values [13, 22]	logarithmic value of ratio of IC40 values [13, 23]	logarithmic value of ratio of IC40 values [14]	logarithmic value of ratio of IC40 values [15]	logarithmic value of ratio of IC40 values [16]	logarithmic value of ratio of IC40 values [17]	logarithmic value of ratio of IC40 values [18]	further results
CCCC[C@@H](C=O)NC(=O)[C@H](CC(C)C)NC(=O)[C@H](CC(C)C)NC(C)=O [ALLN] (Ac-Leu-Leu-[Nle]-aldehyde)	0.10	0.10	0.20	0.11	0.17	0.18	0.12	0.00	0.17	0.20	0.07	0.19	0.11	−0.10	0.11	−0.15	0.00	−0.24	0.22	0.09	logarithmic value of ratio of IC40 values [19]: −0.09
ICE inhibitor-III [ICEin-3]	0.00	−0.088	0.00	0.30	0.38	0.11	0.00	0.00	0.09	0.22	−0.21	0.33	0.18	−0.12	0.00	0.00	−0.06	0.00	0.20	0.15	logarithmic value of ratio of IC40 values [19]: −0.09
C=C1[C@@H](O)[C@@H]2O[C@]3(CC[C@H](/C=C/[C@@H](C)[C@@H]4CC(C)=C[C@@]5(O[C@H](C[C@@](C)(O)C(=O)O)CC[C@H]5O)O4)O3)CC[C@H]2O[C@@H]1[C@@H](O)C[C@H](C)[C@H]1O[C@@]2(CCCCO2)CC[C@H]1C [OA, okadaic acid]	0.21	−0.04	0.08	0.04	0.00	−0.02	0.06	0.00	0.14	0.14	0.00	0.00	0.12	0.00	0.00	0.08	−0.08	−0.07	0.16	0.06	logarithmic value of ratio of IC40 values [19]: 0.12
sodium vanadate	0.00	0.00	0.00	−0.30	−0.09	−0.03	0.03	0.00	0.00	0.01	0.09	0.18	0.03	0.00	0.32	−0.03	−0.10	−0.17	0.22	0.11	logarithmic value of ratio of IC40 values [19]: −0.03
CCCC[C@@H](C)/C=C(C)/C=C(\C)C(=O)NC1=C[C@@](O)(/C=C/C=C/C=C/C(=O)NC2=C(O)CCC2=O)[C@@H]2O[C@@H]2C1=O [Manumycin, manumycin]	0.09	0.02	0.08	−0.24	−0.09	−0.06	0.09	−0.05	0.00	0.03	−0.11	0.16	0.09	−0.07	0.06	0.00	0.05	−0.05	0.17	0.08	logarithmic value of ratio of IC40 values [19]: 0.03
COC[C@H]1OC(=O)c2coc3c2[C@@]1(C)C1=C(C3=O)[C@@H]2CCC(=O)[C@@]2(C)C[C@H]1OC(C)=O [Wortmannin, wortmannin]	0.07	−0.14	−0.07	0.34	0.14	−0.07	0.09	−0.11	0.00	0.18	−0.15	−0.28	0.14	0.14	0.10	0.14	0.18	−0.09	0.00	0.30	logarithmic value of ratio of IC40 values [19]: 0.00
